Assay [1] deals with rat administered with an ophthalmic solution of histamine. Put plainly: Effect of suppressing histamine-induced pruritus. It counts as in vivo. The conditions noted are these: 5 μl eye drops to both eyes 5 min before histamine 10 μmol/5 μl; scratching observed 20 min (FIG. 4). As to the method: In experiments on the evaluation of the effect of suppressing histamine-induced pruritus, test formulation No. 1 (0% of sodium D-3-hydroxybutyrate, referred to as PBS in FIG. 4) and test formulation No. 4 (1.0% of sodium D-3-hydroxybutyrate, referred to as 1% HBA in FIG. 4) shown in Table 1 and Intal (2% of sodium cromoglycate) and Livostin (0.025% of levocabastine hydrochloride) as Comparative formulation were used.
5 μl of an ophthalmic solution of the test formulation or Comparative formulation was administered to the both eyes of each rat each time. Five minutes after this, 10 μmol/5 μl of an ophthalmic solution of histamine was administered to one eye each time to induce pruritus in the rat. […] Meanwhile, Intal which is a chemical mediator isolation inhibitor was not effective (FIG. 4).

The test system of assay [2] is rat suffering from experimental allergenic conjunctivitis. Put plainly: Evaluation test of itching suppression effect in rat model of chronically allergic conjunctivitis. It counts as in vivo. To be noted: 5 μl eye drops to both eyes 5 min before local sensitizing reagent (egg albumin), scratching observed 20 min, repeated 8 days, total for 8 days vs test formulation No. 1 (FIG. 1, 2; significant level of 5%). As to the method: 0.6 ml of a primary sensitizing reagent (a solution prepared by dissolving 20 mg of egg albumin, 40 mg of aluminum hydroxide gel and 2×10^11 units of an inactivated pertussis antigen in physiological saline) was administered to the footpads of both hands and both feet of a rat by using a 24G injection needle. Five days after the administration of the primary sensitizing reagent, 1 ml of a secondary sensitizing reagent (a solution prepared by dissolving 50 mg of egg albumin in 100 ml of physiological saline) was injected hypodermically into the back portion of the rat by using a 27G injection needle. From 14-th to 42-th days after the administration of the primary sensitizing reagent, 5 μl of drops of a local sensitizing reagent (a solution prepared by dissolving 500 mg of egg albumin in 50 ml of physiological saline) was administered to the both eyes of the rat, and the rat was put in an observation cage to observe the “scratching” of the rat for 20 minutes right after the administration of the ophthalmic solution. The rat which took this action 10 times or more within 20 minutes was used as a “rat suffering from experimental allergenic conjunctivitis” in the experiment. […]

Each structure is given as a SMILES string.

As for `C[C@@H](O)CC(=O)[O-].[Na+]` [Sodium D-3-hydroxybutyrate], the “scratching after histamine ophthalmic solution (effect of suppressing itching)” value in assay [1] was “excellent pruritus suppression effect”. Also, the “number of times of scratching (itching suppression effect)” value in assay [2] is listed as “suppressed the scratching of the rat suffering from an experimental allergy, dependent upon its volume”; in assay [2] (listed as sodium D-3-hydroxybutyrate) it was “excellent pruritus suppression effect”.

Values taken from patent US20100056631A1, “ANTIALLERGENIC COMPOSITION” (OPHTECS CORPORATION, priority 2006, published 2010).
